From patent US5702923A, “Method of making a lactococcal bacteriocin” (Quest International Flavors & Food Ingredients Company, a …, priority 1992, dated 1997) come the findings set out here.

One assay deals with L. monocytogenes 69. Description: Inhibition of Listeria, LL-1 compared with nisin. In kind it is cell-based, Listeria monocytogenes. On the set-up: key: + = Inhibition; - = No inhibition. Conditions: 370 IU/ml, nisin purified from the broth. From the text: This is shown by the following data in Table 5.
The next assay relates to Listeria monocytogenes. Description: Spot assay of filter sterilized supernatant (LL-1 broth) on indicator lawn. It counts as cell-based. The conditions noted are these: as crude filter sterilized broth or dried powder from the broth, not purified. The protocol:
To produce the bacteriocin, 500 ml of MRS broth (Difco) was inoculated at 1% with an 8 hour old culture of LLA 1.0 grown in MRS broth (Difco, Detroit, Mich.) and was incubated statically at 32° C. for 24 hours. After 24 hours the cells were removed by centrifugation at 16,000×g for 20 minutes at 4° C. The supernatant was filtered through a 0.22 micron (pore size) filter (Millipore Corp. Bedford, Mass.). The supernatant was assayed for bacteriocin activity by spotting 5 microliters of this supernatant material onto various media overlaid with soft agar seeded with different indicator cells. These assay plates were incubated at 35° C. or 32° C., respectively. After 24 hours the plates were examined, clear zones associated with the spot were recorded as positive (growth inhibition) and negative (no growth inhibition).

Another assay concerns strain NRRL-B-18535. Description: Sensitivity of the producer strain to nisin. It counts as cell-based, Lactococcus lactis. The source says: Inhibitory spectrum of LL-1. The plate assay system was used to evaluate the spectrum of bacteriocin activity. […] Strains of Streptococcus mutans, S. sanguis, S. faecalis and Listeria monocytogenes were not sensitive in this test. The strain NRRL-B-18535 was resistant to nisin.

Regarding nisin, the “Inhibition of L. monocytogenes 69” value with L. monocytogenes 69 is on record as “-”. In addition, the “activity against Listeria monocytogenes, in words” value with Listeria monocytogenes was “not effective”. Moreover, the “sensitivity of strain NRRL-B-18535 to nisin” value with strain NRRL-B-18535 is “resistant”.
